Values after ≈ are worked out from the molar mass of the structure shown. Like-named read-outs stand apart in the source and are kept apart here.
What was measured:
Assay in all cases: Antimicrobial susceptibility testing (MIC), BD Phoenix Automated Microbiology System; for interpretation of the result: key: R, resistant; I, intermediate; S, susceptible; R*: *As a rule, when ESBL is detected, an interpretation of susceptible or intermediate for penicillins, cephalosporins and aztreonam is reported as resistant
Format in all cases: cell-based
Acinetobacter baumannii = details: for MIC: Acinetobacter baumannii
Excerpt: (§1) The inventors performed antimicrobial susceptibility testing (AST) by determining the minimal inhibiting concentration (MIC) of a panel of antimicrobials on all twenty bacterial isolates using the BD Phoenix Automated Microbiology System (Table 3). Antimicrobial panels included several drugs from each of the four most commonly used classes of antimicrobials, aminoglycosides, β-lactams, carbapenems and fluoroquinolones. The panels also included antimicrobials from other classes, such as trimethoprim/sulfamethoxazole, but resistance to these was not considered in the classification of isolates as multidrug-resistant.

Escherichia coli = details: for MIC: Escherichia coli
Excerpt: as §1

Klebsiella ssp. = details: for MIC: Klebsiella
Excerpt: as §1

Pseudomonas aeruginosa = details: for MIC: Pseudomonas aeruginosa
Excerpt: as §1

[1] = Acinetobacter baumannii isolate 1
[2] = Acinetobacter baumannii isolate 2
[3] = Acinetobacter baumannii isolate 3
[4] = Acinetobacter baumannii isolate 4
[5] = Acinetobacter baumannii isolate 5
[6] = Pseudomonas aeruginosa isolate 1
[7] = Pseudomonas aeruginosa isolate 2
[8] = Pseudomonas aeruginosa isolate 3
[9] = Pseudomonas aeruginosa isolate 4
[10] = Pseudomonas aeruginosa isolate 5

| SMILES | interpretation of the result (Acinetobacter baumannii; [1]) | interpretation of the result (Acinetobacter baumannii; [2]) | interpretation of the result (Acinetobacter baumannii; [3]) | interpretation of the result (Acinetobacter baumannii; [4]) | interpretation of the result (Acinetobacter baumannii; [5]) | interpretation of the result (Escherichia coli; Escherichia coli isolate 1) | interpretation of the result (Escherichia coli; Escherichia coli isolate 2) | interpretation of the result (Escherichia coli; Escherichia coli isolate 3) | interpretation of the result (Escherichia coli; Escherichia coli isolate 4) | interpretation of the result (Escherichia coli; Escherichia coli isolate 5) | interpretation of the result (Klebsiella ssp.; Klebsiella ssp. isolate 1) | interpretation of the result (Klebsiella ssp.; Klebsiella ssp. isolate 2) | interpretation of the result (Klebsiella ssp.; Klebsiella ssp. isolate 3) | interpretation of the result (Klebsiella ssp.; Klebsiella ssp. isolate 4) | interpretation of the result (Klebsiella ssp.; Klebsiella ssp. isolate 5) | interpretation of the result (Pseudomonas aeruginosa; [6]) | interpretation of the result (Pseudomonas aeruginosa; [7]) | interpretation of the result (Pseudomonas aeruginosa; [8]) | interpretation of the result (Pseudomonas aeruginosa; [9]) | interpretation of the result (Pseudomonas aeruginosa; [10]) | also measured |
| --- | --- | --- | --- | --- | --- | --- | --- | --- | --- | --- | --- | --- | --- | --- | --- | --- | --- | --- | --- | --- | --- |
| NC[C@H]1O[C@H](O[C@H]2[C@H](O)[C@@H](O[C@H]3O[C@H](CO)[C@@H](O)[C@H](N)[C@H]3O)[C@H](N)C[C@@H]2N)[C@H](N)C[C@@H]1O [Tob., Tobramycin] | I | R | R | R | S | R | R | R | S | R | I | R | I | I | R | S | R | S | R | R | MIC (Acinetobacter baumannii; read-out: minimal inhibiting concentration, Acinetobacter baumannii isolate 1): 8 µg/mL (≈ 17.1 µM); MIC (Acinetobacter baumannii; read-out: minimal inhibiting concentration, Acinetobacter baumannii isolate 2): > 8 µg/mL; MIC (Acinetobacter baumannii; read-out: minimal inhibiting concentration, Acinetobacter baumannii isolate 3): > 8 µg/mL; MIC (Acinetobacter baumannii; read-out: minimal inhibiting concentration, Acinetobacter baumannii isolate 4): > 8 µg/mL; MIC (Acinetobacter baumannii; read-out: minimal inhibiting concentration, Acinetobacter baumannii isolate 5): 4 µg/mL (≈ 8.56 µM); MIC (Escherichia coli; read-out: minimal inhibiting concentration, Escherichia coli isolate 1): > 8 µg/mL; MIC (Escherichia coli; read-out: minimal inhibiting concentration, Escherichia coli isolate 2): > 8 µg/mL; MIC (Escherichia coli; read-out: minimal inhibiting concentration, Escherichia coli isolate 3): > 8 µg/mL; MIC (Escherichia coli; read-out: minimal inhibiting concentration, Escherichia coli isolate 4): ≤ 2 µg/mL; MIC (Escherichia coli; read-out: minimal inhibiting concentration, Escherichia coli isolate 5): > 8 µg/mL; MIC (Klebsiella ssp.; read-out: minimal inhibiting concentration, Klebsiella ssp. isolate 1): 8 µg/mL (≈ 17.1 µM); MIC (Klebsiella ssp.; read-out: minimal inhibiting concentration, Klebsiella ssp. isolate 2): > 8 µg/mL; MIC (Klebsiella ssp.; read-out: minimal inhibiting concentration, Klebsiella ssp. isolate 3): 8 µg/mL (≈ 17.1 µM); MIC (Klebsiella ssp.; read-out: minimal inhibiting concentration, Klebsiella ssp. isolate 4): 8 µg/mL (≈ 17.1 µM); MIC (Klebsiella ssp.; read-out: minimal inhibiting concentration, Klebsiella ssp. isolate 5): > 8 µg/mL; MIC (Pseudomonas aeruginosa; read-out: minimal inhibiting concentration, Pseudomonas aeruginosa isolate 1): ≤ 2 µg/mL; MIC (Pseudomonas aeruginosa; read-out: minimal inhibiting concentration, Pseudomonas aeruginosa isolate 2): > 8 µg/mL; MIC (Pseudomonas aeruginosa; read-out: minimal inhibiting concentration, Pseudomonas aeruginosa isolate 3): ≤ 2 µg/mL; MIC (Pseudomonas aeruginosa; read-out: minimal inhibiting concentration, Pseudomonas aeruginosa isolate 4): > 8 µg/mL; MIC (Pseudomonas aeruginosa; read-out: minimal inhibiting concentration, Pseudomonas aeruginosa isolate 5): > 8 µg/mL |
| NCC[C@H](O)C(=O)N[C@@H]1C[C@H](N)[C@@H](O[C@H]2O[C@H](CN)[C@@H](O)[C@H](O)[C@H]2O)[C@H](O)[C@H]1O[C@H]1O[C@H](CO)[C@@H](O)[C@H](N)[C@H]1O [Amik., Amikacin] | R | R | I | R | R | S | S | S | S | S | S | S | S | S | R | S | S | S | I | I | minimal inhibiting concentration (Acinetobacter baumannii; [1]): > 32 µg/mL; minimal inhibiting concentration (Acinetobacter baumannii; [2]): > 32 µg/mL; minimal inhibiting concentration (Acinetobacter baumannii; [3]): 32 µg/mL (≈ 54.6 µM); minimal inhibiting concentration (Acinetobacter baumannii; [4]): > 32 µg/mL; minimal inhibiting concentration (Acinetobacter baumannii; [5]): > 32 µg/mL; minimal inhibiting concentration (Escherichia coli; Escherichia coli isolate 1): ≤ 8 µg/mL; minimal inhibiting concentration (Escherichia coli; Escherichia coli isolate 2): ≤ 8 µg/mL; minimal inhibiting concentration (Escherichia coli; Escherichia coli isolate 3): ≤ 8 µg/mL; minimal inhibiting concentration (Escherichia coli; Escherichia coli isolate 4): ≤ 8 µg/mL; minimal inhibiting concentration (Escherichia coli; Escherichia coli isolate 5): ≤ 8 µg/mL; minimal inhibiting concentration (Klebsiella ssp.; Klebsiella ssp. isolate 1): ≤ 8 µg/mL; minimal inhibiting concentration (Klebsiella ssp.; Klebsiella ssp. isolate 2): ≤ 8 µg/mL; minimal inhibiting concentration (Klebsiella ssp.; Klebsiella ssp. isolate 3): ≤ 8 µg/mL; minimal inhibiting concentration (Klebsiella ssp.; Klebsiella ssp. isolate 4): ≤ 8 µg/mL; minimal inhibiting concentration (Klebsiella ssp.; Klebsiella ssp. isolate 5): > 32 µg/mL; minimal inhibiting concentration (Pseudomonas aeruginosa; [6]): ≤ 8 µg/mL; minimal inhibiting concentration (Pseudomonas aeruginosa; [7]): 16 µg/mL (≈ 27.3 µM); minimal inhibiting concentration (Pseudomonas aeruginosa; [8]): 16 µg/mL (≈ 27.3 µM); minimal inhibiting concentration (Pseudomonas aeruginosa; [9]): 32 µg/mL (≈ 54.6 µM); minimal inhibiting concentration (Pseudomonas aeruginosa; [10]): 32 µg/mL (≈ 54.6 µM) |
| CN(C)[C@@H]1C(O)=C(C(N)=O)C(=O)[C@@]2(O)C(O)=C3C(=O)c4c(O)cccc4[C@@](C)(O)[C@H]3C[C@@H]12 [Tet., Tetracycline] | R | S | R | R | I | R | S | R | R | R | R | R | R | R | R | R | R | R | R | R | MIC (Acinetobacter baumannii; Acinetobacter baumannii isolate 1, read-out: minimal inhibiting concentration): > 8 µg/mL; MIC (Acinetobacter baumannii; Acinetobacter baumannii isolate 2, read-out: minimal inhibiting concentration): 4 µg/mL (≈ 9 µM); MIC (Acinetobacter baumannii; Acinetobacter baumannii isolate 3, read-out: minimal inhibiting concentration): > 8 µg/mL; MIC (Acinetobacter baumannii; Acinetobacter baumannii isolate 4, read-out: minimal inhibiting concentration): > 8 µg/mL; MIC (Acinetobacter baumannii; Acinetobacter baumannii isolate 5, read-out: minimal inhibiting concentration): 8 µg/mL (≈ 18 µM); MIC (Escherichia coli; Escherichia coli isolate 1, read-out: minimal inhibiting concentration): > 8 µg/mL; MIC (Escherichia coli; Escherichia coli isolate 2, read-out: minimal inhibiting concentration): ≤ 2 µg/mL; MIC (Escherichia coli; Escherichia coli isolate 3, read-out: minimal inhibiting concentration): > 8 µg/mL; MIC (Escherichia coli; Escherichia coli isolate 4, read-out: minimal inhibiting concentration): > 8 µg/mL; MIC (Escherichia coli; Escherichia coli isolate 5, read-out: minimal inhibiting concentration): > 8 µg/mL; MIC (Klebsiella ssp.; Klebsiella ssp. isolate 1, read-out: minimal inhibiting concentration): > 8 µg/mL; MIC (Klebsiella ssp.; Klebsiella ssp. isolate 2, read-out: minimal inhibiting concentration): > 8 µg/mL; MIC (Klebsiella ssp.; Klebsiella ssp. isolate 3, read-out: minimal inhibiting concentration): > 8 µg/mL; MIC (Klebsiella ssp.; Klebsiella ssp. isolate 4, read-out: minimal inhibiting concentration): > 8 µg/mL; MIC (Klebsiella ssp.; Klebsiella ssp. isolate 5, read-out: minimal inhibiting concentration): > 8 µg/mL; MIC (Pseudomonas aeruginosa; Pseudomonas aeruginosa isolate 1, read-out: minimal inhibiting concentration): > 8 µg/mL; MIC (Pseudomonas aeruginosa; Pseudomonas aeruginosa isolate 2, read-out: minimal inhibiting concentration): > 8 µg/mL; MIC (Pseudomonas aeruginosa; Pseudomonas aeruginosa isolate 3, read-out: minimal inhibiting concentration): > 8 µg/mL; MIC (Pseudomonas aeruginosa; Pseudomonas aeruginosa isolate 4, read-out: minimal inhibiting concentration): > 8 µg/mL; MIC (Pseudomonas aeruginosa; Pseudomonas aeruginosa isolate 5, read-out: minimal inhibiting concentration): > 8 µg/mL |

From patent US9529005B2, “Modulating bacterial MAM polypeptides in pathogenic disease” (priority 2011, dated 2016)
